What was measured:
dog pancreatic α-amylase = test: α-amylase inhibitory activity (starch-iodine absorbance); type: biochemical; conditions: beagle dog pancreas enzyme, starch substrate, 37° C., pH=7.0; read-out: inhibitory activity (IC50 value) against the dog pancreatic α-amylase
Description: (§1) The solutions of pancreatic α-amylases of mouse, rat, dog and monkey were prepared from the pancreases of an ICR mouse (male, 8 weeks old, purchased from SLC Japan, Inc.), an SD rat (male, 8 weeks old, purchased from Charles River Laboratories Japan, Inc.), a beagle dog (male, 35 months old, purchased from Narc Corp.), and a cynomolgus monkey (male, 10 years old, purchased from CLEA Japan, Inc.). The solutions of α-amylases from human saliva and pancreas were prepared from the enzymes purchased from Sigma-Aldrich Co. These α-amylase solutions were all diluted to 800 U/mL using an assay buffer (48 mM NaCl, 5.4 mM KCl, 28 mM Na2HPO4, 43 mM NaH2PO4, 35 mM mannitol, pH=7.0). The various α-amylase solutions (20 U, 25 μL) and the compounds dissolved in the assay buffer (25 μL) were added to a 96-well microplate, and the microplate was incubated at 37° C. for 10 minutes. Subsequently, a starch solution (5 mg/mL, 50 μL) was added thereto, and the microplate was incubated at 37° C. for 10 minutes. A 0.33 M perchloric acid solution (50 μL) was added to the microplate to terminate the enzymatic reaction, and then a 0.01 M iodine solution (50 μL) was added thereto to color the solutions. The absorbance (660 nm) of each of the solutions was measured. The concentration of the compound inhibiting 50% of the α-amylase activity was calculated as the IC50 value.

[1] = biological target: T1, human pancreatic α-amylase (Homo sapiens, UniProt P04746); test: as above; type: biochemical; conditions: enzyme from Sigma-Aldrich, starch substrate, 37° C., pH=7.0; read-out: inhibitory activity (IC50 value) against the human pancreatic α-amylase
T1 construct: The solutions of α-amylases from human saliva and pancreas were prepared from the enzymes purchased from Sigma-Aldrich Co; purchased Sigma-Aldrich Co; host or cells: human pancreas
T1 sequence (P04746 16-511): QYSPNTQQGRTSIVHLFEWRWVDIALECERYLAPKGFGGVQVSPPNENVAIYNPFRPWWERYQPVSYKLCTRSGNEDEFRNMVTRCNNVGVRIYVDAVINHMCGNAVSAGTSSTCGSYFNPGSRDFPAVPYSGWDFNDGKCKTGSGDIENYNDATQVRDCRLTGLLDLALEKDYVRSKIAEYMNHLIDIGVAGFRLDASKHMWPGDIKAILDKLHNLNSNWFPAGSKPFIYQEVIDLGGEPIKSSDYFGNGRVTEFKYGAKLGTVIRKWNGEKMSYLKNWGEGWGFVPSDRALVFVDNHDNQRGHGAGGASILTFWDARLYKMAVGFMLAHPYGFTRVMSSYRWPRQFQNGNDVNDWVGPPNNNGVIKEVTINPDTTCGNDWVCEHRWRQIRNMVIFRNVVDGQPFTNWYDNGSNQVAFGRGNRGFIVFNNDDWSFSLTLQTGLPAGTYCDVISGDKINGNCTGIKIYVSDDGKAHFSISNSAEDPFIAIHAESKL
Description: as §1

human saliva α-amylase = biological target: T2, human saliva α-amylase (Homo sapiens, UniProt P0DUB6); test: as above; type: biochemical; conditions: enzyme from Sigma-Aldrich, starch substrate, 37° C., pH=7.0; read-out: inhibitory activity (IC50 value) against the human saliva α-amylase
T2 construct: The solutions of α-amylases from human saliva and pancreas were prepared from the enzymes purchased from Sigma-Aldrich Co; purchased Sigma-Aldrich Co; host or cells: human saliva
T2 sequence (P0DUB6 16-511): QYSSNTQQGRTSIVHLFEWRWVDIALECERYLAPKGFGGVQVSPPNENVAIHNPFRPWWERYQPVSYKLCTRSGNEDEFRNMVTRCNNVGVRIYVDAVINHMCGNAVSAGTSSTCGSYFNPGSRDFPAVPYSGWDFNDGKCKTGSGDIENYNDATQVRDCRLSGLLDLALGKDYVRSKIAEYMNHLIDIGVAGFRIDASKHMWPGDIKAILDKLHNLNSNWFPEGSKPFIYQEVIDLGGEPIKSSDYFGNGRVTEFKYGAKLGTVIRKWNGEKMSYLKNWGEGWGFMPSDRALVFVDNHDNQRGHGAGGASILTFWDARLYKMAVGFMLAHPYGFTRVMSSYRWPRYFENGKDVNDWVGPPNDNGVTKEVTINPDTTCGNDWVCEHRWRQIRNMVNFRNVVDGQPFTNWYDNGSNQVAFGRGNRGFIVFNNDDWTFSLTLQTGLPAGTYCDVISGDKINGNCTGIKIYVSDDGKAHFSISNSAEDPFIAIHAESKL
Description: as §1

[2] = biological target: monkey pancreatic α-amylase; test: as above; type: biochemical; conditions: cynomolgus monkey pancreas enzyme, starch substrate, 37° C., pH=7.0; read-out: inhibitory activity (IC50 value) against the monkey pancreatic α-amylase
Description: as §1

[3] = biological target: T3, mouse pancreatic α-amylase (Mus musculus, UniProt P00688); test: as above; type: biochemical; conditions: read-out: inhibitory activity (IC50 value) against the mouse pancreatic α-amylase; ICR mouse pancreas enzyme, starch substrate, 37° C., pH=7.0
T3 construct: prepared from the pancreases of an ICR mouse; from tissue; host or cells: pancreas of ICR mouse (male, 8 weeks old, SLC Japan)
T3 sequence (P00688 16-508): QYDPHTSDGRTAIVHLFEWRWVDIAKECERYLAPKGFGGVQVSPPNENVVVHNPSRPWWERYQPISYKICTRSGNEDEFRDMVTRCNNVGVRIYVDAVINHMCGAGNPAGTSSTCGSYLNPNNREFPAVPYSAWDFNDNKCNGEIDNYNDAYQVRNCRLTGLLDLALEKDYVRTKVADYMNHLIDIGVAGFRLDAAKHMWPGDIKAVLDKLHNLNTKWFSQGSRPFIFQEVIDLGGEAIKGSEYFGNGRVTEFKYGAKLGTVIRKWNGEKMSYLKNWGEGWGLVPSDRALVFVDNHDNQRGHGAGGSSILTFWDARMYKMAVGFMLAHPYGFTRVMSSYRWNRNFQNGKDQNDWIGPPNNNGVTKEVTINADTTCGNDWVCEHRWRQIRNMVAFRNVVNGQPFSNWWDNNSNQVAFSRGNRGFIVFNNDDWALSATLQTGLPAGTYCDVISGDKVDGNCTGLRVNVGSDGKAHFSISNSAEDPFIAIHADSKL
Description: as §1

rat pancreatic α-amylase = biological target: T4, rat pancreatic α-amylase (Rattus norvegicus, UniProt P00689); test: as above; type: biochemical; conditions: read-out: inhibitory activity (IC50 value) against the rat pancreatic α-amylase; SD rat pancreas enzyme, starch substrate, 37° C., pH=7.0
T4 construct: The solutions of pancreatic α-amylases of mouse, rat, dog and monkey were prepared from the pancreases; from tissue; host or cells: pancreas of SD rat (male, 8 weeks old, Charles River Laboratories Japan)
T4 sequence (P00689 16-508): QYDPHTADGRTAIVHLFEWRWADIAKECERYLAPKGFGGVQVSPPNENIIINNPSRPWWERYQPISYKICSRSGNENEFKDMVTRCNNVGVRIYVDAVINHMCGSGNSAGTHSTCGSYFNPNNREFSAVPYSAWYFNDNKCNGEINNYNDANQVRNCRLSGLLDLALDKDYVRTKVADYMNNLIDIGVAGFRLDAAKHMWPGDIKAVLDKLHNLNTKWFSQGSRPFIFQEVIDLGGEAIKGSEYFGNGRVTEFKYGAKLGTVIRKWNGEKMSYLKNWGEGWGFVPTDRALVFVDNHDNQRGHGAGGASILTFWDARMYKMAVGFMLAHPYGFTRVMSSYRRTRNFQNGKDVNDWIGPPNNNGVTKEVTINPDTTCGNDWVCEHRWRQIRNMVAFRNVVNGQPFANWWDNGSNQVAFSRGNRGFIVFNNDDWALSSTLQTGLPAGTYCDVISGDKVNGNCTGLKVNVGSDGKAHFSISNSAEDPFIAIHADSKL
Description: as §1

Male ICR (normal) mice = test: oral activity under a load of carbohydrates (blood glucose and plasma insulin); type: in vivo, mouse
Description: Male ICR (normal) mice (6 weeks old, purchased from SLC Japan, Inc.) were used for the animal. The compound was prepared into a solution using a 0.5% methylcellulose solution. Blood was collected from a mouse which had been fasted overnight, for the measurement of the blood glucose level and the blood plasma insulin level, and the mouse was orally administered with a solvent or the compound A (0.3, 1, 3, 10 mg/kg), immediately followed by oral administration of a carbohydrate solution (75 mg/mL starch, 25 mg/mL sucrose, 20 mL/kg). Subsequently, blood was collected 0.25, 0.5 and 1 hour after the oral administration, for the measurement of the blood plasma insulin level, and blood was collected 0.5, 1 and 2 hours after the oral administration, for the measurement of the blood glucose level.
The blood glucose level was measured by using Glucose CH-test Wako reagent (Wako Pure Chemical Industry, Ltd.), and the blood plasma insulin concentration was measured by using a Mouse Insulin ELISA Kit (Shibayagi Co., Ltd.). The test results are indicated in the average ±standard error.
The area-under-curve (AUC) of the blood glucose level-time curve was calculated from the blood glucose level for the time period up to 2 hours from the administration of the compound, and the AUC of the plasma insulin level-time curve was calculated from the blood plasma insulin level for the time period up to 1 hour from the administration of the compound. A statistical analysis was performed between the solvent-administered group and the compound A-administered group by using Dunnett's multiple range test, and a critical rate of less than 5% was defined as significant.

[4] = Solubility (physicochemical properties)

Structure (SMILES)	IC50 (dog pancreatic α-amylase) [nM]	IC50 [1] [nM]	IC50 (human saliva α-amylase) [nM]	IC50 [2] [nM]	IC50 [3] [nM]	IC50 (rat pancreatic α-amylase) [nM]	blood glucose elevation suppressive action (Male ICR (normal) mice; oral administration 0.3 to 10 mg/kg, fasted ICR mice, carbohydrate load (starch + sucrose), glucose up to 2 hours, FIG. 7)	plasma insulin level lowering action (Male ICR (normal) mice; oral administration 0.3 to 10 mg/kg, fasted ICR mice, carbohydrate load, insulin up to 1 hour, FIG. 8)	dose at which the blood glucose elevation suppressive action was significant (Male ICR (normal) mice; oral, ICR mice, carbohydrate load, Dunnett's test vs solvent group) [mg/kg]	Solubility in acetone, MeOH, EtOH and MeCN [4]	Solubility in water, DMF and DMSO [4]
CC1OC(OC2C(CO)OC(OC3C(CO)=CC(NC4C(C)OC(OC5C(CO)OC(OC6C(CO)=CC(NC7C(C)OC(OC8C(CO)OC(OC9C(CO)=CC(NC%10C(C)OC(OC%11C(CO)OC(OC%12C(CO)OC(OC%13C(CO)OC(OC%14OC(CO)C(O)C(O)C%14O)C(O)C%13O)C(O)C%12O)C(O)C%11O)C(O)C%10O)C(O)C9O)C(O)C8O)C(O)C7O)C(O)C6O)C(O)C5O)C(O)C4O)C(O)C3O)C(O)C2O)C(O)C(O)C1NC1C=C(CO)C(O)C(O)C1O (stereo not drawn) [compound A]	2.06	2.02	2.2	2.14	1.9	2.01	dose-dependent blood glucose elevation suppressive action was recognized	dose-dependent, significant plasma insulin level lowering action was also recognized	≥ 1	slightly soluble	highly soluble
CC1OC(OC2C(CO)OC(OC3C(CO)=CC(NC4C(C)OC(OC5C(CO)OC(OC6C(CO)=CC(NC7C(C)OC(OC8C(CO)OC(OC9C(CO)=CC(NC%10C(C)OC(OC%11C(CO)OC(OC%12C(CO)=CC(NC%13C(C)OC(OC%14C(CO)OC(OC%15C(CO)OC(OC%16C(CO)OC(OC%17OC(CO)C(O)C(O)C%17O)C(O)C%16O)C(O)C%15O)C(O)C%14O)C(O)C%13O)C(O)C%12O)C(O)C%11O)C(O)C%10O)C(O)C9O)C(O)C8O)C(O)C7O)C(O)C6O)C(O)C5O)C(O)C4O)C(O)C3O)C(O)C2O)C(O)C(O)C1NC1C=C(CO)C(O)C(O)C1O (stereo not drawn) [compound B]	2.38	2.11	1.87	1.9	2.06	2.12	–	–	–	slightly soluble	highly soluble
CC1OC(OC2C(CO)OC(OC3C(CO)=CC(NC4C(C)OC(OC5C(CO)OC(OC6C(CO)=CC(NC7C(C)OC(OC8C(CO)OC(OC9C(CO)=CC(NC%10C(C)OC(OC%11C(CO)OC(OC%12C(CO)=CC(NC%13C(C)OC(OC%14C(CO)OC(OC%15C(CO)=CC(NC%16C(C)OC(OC%17C(CO)OC(OC%18C(CO)OC(OC%19C(CO)OC(OC%20OC(CO)C(O)C(O)C%20O)C(O)C%19O)C(O)C%18O)C(O)C%17O)C(O)C%16O)C(O)C%15O)C(O)C%14O)C(O)C%13O)C(O)C%12O)C(O)C%11O)C(O)C%10O)C(O)C9O)C(O)C8O)C(O)C7O)C(O)C6O)C(O)C5O)C(O)C4O)C(O)C3O)C(O)C2O)C(O)C(O)C1NC1C=C(CO)C(O)C(O)C1O (stereo not drawn) [compound C]	2.07	2.21	1.99	2.02	1.73	1.95	–	–	–	slightly soluble	highly soluble

— patent US20110105420A1, “AMINOSUGAR COMPOUND AND PROCESS FOR PRODUCTION THEREOF” (Astellas Pharma Inc., priority 2008, published 2011)
